Assays:
HIV = HIV antiviral assay, inhibition of CPE in CEM cells (XTT-PMS); type: cell-based, strain HTLV-IIIB; details: Human immunodeficiency virus 1, CCRF-CEM, 168 h, 7 days, read-out: ID50 HIV
Protocol: (§1) Assays were performed in cell culture systems to determine the concentrations of compounds that are effective in preventing several kinds of viral infections.
(§2) HSV-1 (herpes simplex virus type 1, strain Schooler), HSV-2 (herpes simplex virus type 2, strain 186), VZV (varicella zoster virus, strain ELLEN), HCMV (human cytomegalovirus, strain AD 169), MuLV (murine leukemia virus, strain CAS), HIV (human immunodeficiency virus, strain HTLV-IIIB).
HIV antiviral assay: Suspensions of CEM(Nara and Fischinger, Nature, 332:469, 1988) cells were infected at a multiplicity of infection (e.g. virus/cell) of 0.12 with HIV (strain HTLV-III B). […] Following incubation, viable cell numbers were counted in each well using a colorimetric assay following incubation of cells with XTT-PMS solution (XTT tetrazolium reagent plus phenazine methosulfate PMS).
Percent reduction of viral cytopathic effect (CPE) in drug treated compared to untreated virus infected cells, and percent reduction of cell viability in drug treated uninfected cells compared to untreated controls were calculated and plotted versus the drug concentrations tested. From these plots, the IDso (the minimum drug concentration that inhibits CPE by 50%) for each drug was calculated.

VZV = VZV plaque reduction assay in WI-38 cells; type: cell-based, varicella zoster virus, strain ELLEN; details: Human alphaherpesvirus 3, 6-7 days, 37° C, read-out: ID50 VZV
Protocol: as §1, §2
(§3) HSV-1, HSV-2, HCMV, and VZV antiviral assays: Virus was adsorbed to WI-38 cell culture monolayers in 6 well culture plates (Costar, Cambridge, Mass.) for 1 hour prior to addition of maintenance medium containing duplicate dilutions of the test compound. Inhibition of plaque development was evaluated on fixed and stained monolayers after 4 days incubation at 37° C. for HSV-1 and HSV-2 and after 6-7 days incubation at 37° C. for HCMV and VZV. ID50 values were determined from the drug concentration which conferred at least a 50% plaque reduction compared to virus controls.

HCMV = HCMV plaque reduction assay in WI-38 cells; type: cell-based, human cytomegalovirus, strain AD 169; details: Human betaherpesvirus 5, 6-7 days, 37° C, read-out: ID50 HCMV
Protocol: as §1, §2, §3

HSV-2 = HSV-2 plaque reduction assay in WI-38 cells; type: cell-based, herpes simplex virus type 2, strain 186; details: Human alphaherpesvirus 2, WI-38, 96 h, read-out: ID50 HSV-2
Protocol: as §1, §2, §3

Work on `Nc1nc2c(ncn2[C@H]2C[C@@H](CO)[C@@H]2CO)c(=O)[nH]1` (relative stereo) [(1α,2β,3α)-9-[2,3-Bis(hydroxymethyl)cyclobutyl]guanine] yielded an IC50 (HIV) of 30 µM.

`Nc1nc2c(nnn2[C@H]2C[C@@H](CO)[C@@H]2CO)c(=O)[nH]1` (relative stereo) [(1α,2β,3α)-5-Amino-3-[2,3-bis(hydroxymethyl)cyclo-butyl]-3,6-dihydro-7H-1,2,3-triazolo[4,5-d]-pyrimidin-7-one] showed an IC50 (VZV) of 3.8 to 38 µM.

`O=c1[nH]c(=O)n([C@H]2C[C@@H](CO)[C@@H]2CO)cc1I` (relative stereo) [(1α,2β,3α)-1-[2,3-Bis(hydroxymethyl)cyclobutyl]-5-iodo-2,4(1H,3H)-pyrimidinedione] was tested, and the IC50 (HCMV) was greater than 284 µM and the IC50 (HSV-2) was greater than 284 µM.

`Nc1ncnc2c1ncn2[C@H]1C[C@@H](CO)[C@@H]1CO` (relative stereo) [(1α,2β,3α)-3-(6-Amino-9H-purin-9-yl)-1,2-cyclobutanedimethanol] was tested, and the IC50 (HIV) was 6.8 µM.

In the case of `O=c1[nH]c(=O)n([C@H]2C[C@@H](CO)[C@@H]2CO)cc1/C=C/Br` (relative stereo) [[1α(E),2β,3α]-1-[2,3-Bis(hydroxymethyl)-cyclobutyl]-5-(2-bromoethenyl)-2,4(1H,3H)-pyrimidinedione], the IC50 (HCMV) is reported as greater than 302 µM and the IC50 (HSV-2) is reported as greater than 302 µM.

Reference: patent US5130462A, “Cyclobutane derivatives” (E. R. Squibb & Sons, Inc., priority 1991, dated 1992)
